Experimental data published in patent US8575163B2, “Pyrrolopyridinylpyrimidin-2-ylamine derivatives” (Merck Patent GmbH, priority 2009, dated 2013).
pIC50: −log10 of the molar value.

What follows are compounds tested against T1, PDK1 (Homo sapiens, UniProt O15530) (assay: Test for the inhibition of PDK1 (flashplate, 33P-ATP)). Conditions: His6-PDK1 3.4 nM, 4 μM ATP, 30° C., 60 min.
T1 construct: His6 (N)
T1 sequence (O15530 51-556 limits assumed): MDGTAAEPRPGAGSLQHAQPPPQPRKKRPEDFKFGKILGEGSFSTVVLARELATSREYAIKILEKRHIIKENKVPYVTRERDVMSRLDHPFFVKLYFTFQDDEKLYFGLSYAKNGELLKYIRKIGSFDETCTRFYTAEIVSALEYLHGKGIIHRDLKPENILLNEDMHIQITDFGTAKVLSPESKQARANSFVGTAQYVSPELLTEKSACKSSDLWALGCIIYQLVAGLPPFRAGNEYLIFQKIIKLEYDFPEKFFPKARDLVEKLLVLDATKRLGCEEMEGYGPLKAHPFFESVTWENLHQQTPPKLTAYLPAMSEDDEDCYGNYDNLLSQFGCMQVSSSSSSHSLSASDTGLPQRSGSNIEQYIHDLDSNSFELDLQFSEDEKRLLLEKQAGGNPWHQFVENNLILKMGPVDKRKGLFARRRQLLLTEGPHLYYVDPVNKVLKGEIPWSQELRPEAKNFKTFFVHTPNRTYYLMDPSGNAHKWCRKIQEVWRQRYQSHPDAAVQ
Type: biochemical
Experimental: The experimental batches are carried out in a flashplate system with 384 wells/microtitration plate.
In each case, the PDK1 sample His6-PDK1(1-50)(3.4 nM), the PDK1 substrate biotin-bA-bA-[…] (400 nM), 4 μM ATP (with 0.2 μCi of ^33 P-ATP/well) and the test substance in 50 μl of conventional experimental solution per well are incubated at 30° C. for 60 min. The test substances are employed in corresponding concentrations (if desired in a dilution series). The control is carried out without test substance. The reaction is stopped using standard methods and washed. The activity of the kinase is measured via the incorporated radioactivity in top count. In order to determine the non-specific kinase reaction (blank value), the experimental batches are carried out in the presence of 100 nM staurosporin.
The radioactivity (decompositions per minute) of the blank value (no use of test substance in the presence of staurosporin) is subtracted from all other radioactivity values. The controls (kinase activity without test substance) are set equal to 100 percent and all other radioactivity values (after subtracting the blank value) are expressed set in relation thereto (for example in % of the control).
[formula] IC50 values (50% inhibition) are determined with the aid of statistics programmes, such as, for example, RS1.

| Compound | pIC50 |
| --- | --- |
| CC(O)(c1ccccc1)c1cc(-c2c[nH]c3ncc(-c4cnn(C(F)F)c4)cc23)nc(N)n1 (centres unmarked) [A40, 1-{2-amino-6-[5-(1-difluoromethyl-1H-pyrazol-4-yl)-1H-pyrrolo[2,3-b]pyridin-3-yl]pyrimidin-4-yl}-1-phenylethanol] | 7.27 |
| CCC(O)(c1ccncc1)c1cc(-c2c[nH]c3ncc(-c4cn[nH]c4)cc23)nc(N)n1 (single isomer, unassigned) [A44, 1-{2-amino-6-[5-(1H-pyrazol-4-yl)-1H-pyrrolo[2,3-b]pyridin-3-yl]pyrimidin-4-yl}-1-pyridin-4-ylpropan-1-ol] | 7.77 |
| CC(O)(c1cccc(F)c1)c1cc(-c2c[nH]c3ncc(-c4ccc(CO)cc4)cc23)nc(N)n1 (centres unmarked) [A49, 1-{2-amino-6-[5-(4-hydroxymethylphenyl)-1H-pyrrolo[2,3-b]pyridin-3-yl]-pyrimidin-4-yl}-1-(3-fluorophenyl)ethanol] | 7.44 |
| CC(O)(c1ccccc1)c1cc(-c2c[nH]c3ncc(-c4cnn(S(C)(=O)=O)c4)cc23)nc(N)n1 (centres unmarked) [A48, 1-{2-amino-6-[5-(1-methanesulfonyl-1H-pyrazol-4-yl)-1H-pyrrolo[2,3-b]pyridin-3-yl]pyrimidin-4-yl}-1-phenylethanol] | 6.85 |
| Cn1cc(-c2cnc3[nH]cc(-c4cc(C(O)(c5ccccc5)C5CCCC5)nc(N)n4)c3c2)cn1 (centres unmarked) [A85, {2-amino-6-[5-(1-methyl-1H-pyrazol-4-yl)-1H-pyrrolo[2,3-b]pyridin-3-yl]-pyrimidin-4-yl}cyclopentylphenylmethanol] | 7.28 |
| CC(O)(c1ccccc1)c1cc(-c2c[nH]c3ncc(-c4ccnnc4)cc23)nc(N)n1 (centres unmarked) [A101, 1-[2-amino-6-(5-pyridazin-4-yl-1H-pyrrolo[2,3-b]pyridin-3-yl)pyrimidin-4-yl]-1-phenylethanol] | 6.13 |
| CC(O)(c1ccccc1)c1cc(-c2c[nH]c3ncc(-c4cnn(C(F)F)c4)cc23)nc(N)n1 (centres unmarked) [A39, 1-{2-amino-6-[5-(1-difluoromethyl-1H-pyrazol-4-yl)-1H-pyrrolo[2,3-b]pyridin-3-yl]pyrimidin-4-yl}-1-phenylethanol] | 7.04 |
| COCOC(C)(c1ccccc1)c1cc(-c2c[nH]c3ncc(-c4cnn(C)c4)cc23)nc(N)n1 (centres unmarked) [A25, 4-(1-methoxymethoxy-1-phenylethyl)-6-[5-(1-methyl-1H-pyrazol-4-yl)-1H-pyrrolo[2,3-b]pyridin-3-yl]pyrimidin-2-ylamine] | 7.24 |
| CC(C)C(O)(c1ccccc1)c1cc(-c2c[nH]c3ncc(-c4cnn(C)c4)cc23)nc(N)n1 (centres unmarked) [A82, 1-{2-amino-6-[5-(1-methyl-1H-pyrazol-4-yl)-1H-pyrrolo[2,3-b]pyridin-3-yl]-pyrimidin-4-yl}-2-methyl-1-phenylpropan-1-ol] | 7.11 |
| COCOC(C)(c1cccc(F)c1)c1nc(N)nc(-c2c[nH]c3ncc(Br)cc23)c1F (centres unmarked) [A12, 4-(5-bromo-1H-pyrrolo[2,3-b]pyridin-3-yl)-5-fluoro-6-[1-(3-fluorophenyl)-1-methoxymethoxyethyl]pyrimidin-2-ylamine] | < 4.70 |
| CC(O)(c1ccccc1)c1cc(-c2c[nH]c3ncc(Br)cc23)nc(N)n1 (centres unmarked) [A86, 1-[2-amino-6-(5-bromo-1H-pyrrolo[2,3-b]pyridin-3-yl)pyrimidin-4-yl]-1-phenylethanol] | 7.05 |
| CCC(O)(c1cccnc1)c1cc(-c2c[nH]c3ncc(-c4cnn(C)c4)cc23)nc(N)n1 (centres unmarked) [A26, 1-{2-amino-6-[5-(1-methyl-1H-pyrazol-4-yl)-1H-pyrrolo[2,3-b]pyridin-3-yl]-pyrimidin-4-yl}-1-pyridin-3-ylpropan-1-ol] | 7.37 |
| CO[C@](C)(c1ccccc1)c1cc(-c2c[nH]c3ncc(-c4cnn(CCO)c4)cc23)nc(N)n1 (single isomer, unassigned) [A92] | 7.46 |
| COCOC(C)(c1ccccc1)c1cc(-c2c[nH]c3ncc(-c4cnn(CCC(=O)O)c4)cc23)nc(N)n1 (centres unmarked) [A77, 3-(4-{3-[2-amino-6-(1-methoxymethoxy-1-phenylethyl)pyrimidin-4-yl]-1H-pyrrolo[2,3-b]pyridin-5-yl}pyrazol-1-yl)propionic acid] | 7.37 |
| CCC(O)(c1ccccc1)c1cc(-c2c[nH]c3ncc(-c4cnn(CCO)c4)cc23)nc(N)n1 (centres unmarked) [A98, 1-(2-amino-6-{5-[1-(2-hydroxyethyl)-1H-pyrazol-4-yl]-1H-pyrrolo[2,3-b]-pyridin-3-yl}pyrimidin-4-yl)-1-phenylpropan-1-ol] | 7.92 |
| CCOC(C)(c1ccccc1)c1cc(-c2c[nH]c3ncc(-c4cnn(C)c4)cc23)nc(N)n1 (centres unmarked) [A76, 4-(1-ethoxy-1-phenylethyl)-6-[5-(1-methyl-1H-pyrazol-4-yl)-1H-pyrrolo-[2,3-b]pyridin-3-yl]pyrimidin-2-ylamine] | 7.10 |
| CCC(O)(c1ccncc1)c1cc(-c2c[nH]c3ncc(-c4cnn(C)c4)cc23)nc(N)n1 (centres unmarked) [A28, 1-{2-amino-6-[5-(1-methyl-1H-pyrazol-4-yl)-1H-pyrrolo[2,3-b]pyridin-3-yl]-pyrimidin-4-yl}-1-pyridin-4-ylpropan-1-ol] | 8.16 |
| CC(O)(c1cccc(F)c1)c1cc(-c2c[nH]c3ncc(-c4cnn(CC(=O)N5CCCCC5)c4)cc23)nc(N)n1 (centres unmarked) [A59, 2-[4-(3-{2-amino-6-[1-(3-fluorophenyl)-1-hydroxyethyl]pyrimidin-4-yl}-1H-pyrrolo[2,3-b]pyridin-5-yl)pyrazol-1-yl]-1-piperidin-1-ylethanone] | 7.16 |
| CCC(OCOC)(c1cc(-c2c[nH]c3ncc(-c4cnn(C)c4)cc23)nc(N)n1)c1ccncc1F (centres unmarked) [A32, 4-[1-(3-fluoropyridin-4-yl)-1-methoxymethoxypropyl]-6-[5-(1-methyl-1H-pyrazol-4-yl)-1H-pyrrolo[2,3-b]pyridin-3-yl]pyrimidin-2-ylamine] | 7.60 |
| CC[C@@](OCOC)(c1cccc(F)c1)c1cc(-c2c[nH]c3ncc(Br)cc23)nc(N)n1 [A51, 4-(5-bromo-1H-pyrrolo[2,3-b]pyridin-3-yl)-6-[(R)-1-(3-fluorophenyl)-1-methoxymethoxypropyl]pyrimidin-2-ylamine] | 6.19 |
| CCC(OCOC)(c1ccncc1)c1cc(-c2c[nH]c3ncc(Br)cc23)nc(N)n1 (centres unmarked) [A34, 4-(5-bromo-1H-pyrrolo[2,3-b]pyridin-3-yl)-6-(1-methoxymethoxy-1-pyridin-4-ylpropyl)pyrimidin-2-ylamine] | 6.77 |
| CCCC(OCOC)(c1ccncc1)c1cc(-c2c[nH]c3ncc(-c4cnn(C)c4)cc23)nc(N)n1 (centres unmarked) [A36, 4-(1-methoxymethoxy-1-pyridin-4-ylbutyl)-6-[5-(1-methyl-1H-pyrazol-4-yl)-1H-pyrrolo[2,3-b]pyridin-3-yl]pyrimidin-2-ylamine] | 7.25 |
| Cc1ccccc1C(C)(O)c1cc(-c2c[nH]c3ncc(-c4cnn(CCO)c4)cc23)nc(N)n1 (centres unmarked) [A89, 1-(2-amino-6-{5-[1-(2-hydroxyethyl)-1H-pyrazol-4-yl]-1H-pyrrolo[2,3-b]-pyridin-3-yl}pyrimidin-4-yl)-1-o-tolylethanol] | 7.72 |
| CCCC(O)(c1ccccc1)c1cc(-c2c[nH]c3ncc(Br)cc23)nc(N)n1 (centres unmarked) [A16, 1-[2-amino-6-(5-bromo-1H-pyrrolo[2,3-b]pyridin-3-yl)pyrimidin-4-yl]-1-phenylbutan-1-ol] | 6.55 |
| Cn1cc(-c2cnc3[nH]cc(-c4cc(C(C)(O)c5ccncc5)nc(N)n4)c3c2)cn1 (centres unmarked) [A64, 1-{2-amino-6-[5-(1-methyl-1H-pyrazol-4-yl)-1H-pyrrolo[2,3-b]pyridin-3-yl]-pyrimidin-4-yl}-1-pyridin-4-ylethanol] | 8.48 |
| COC(=O)CCn1cc(-c2cnc3[nH]cc(-c4cc(C(C)(O)c5ccccc5)nc(N)n4)c3c2)cn1 (centres unmarked) [A70, methyl 3-(4-{3-[2-amino-6-(1-hydroxy-1-phenylethyl)pyrimidin-4-yl]-1H-pyrrolo[2,3-b]pyridin-5-yl}pyrazol-1-yl)propionate] | 7.32 |
| COCOC(C)(c1ccncc1)c1cc(-c2c[nH]c3ncc(Br)cc23)nc(N)n1 (centres unmarked) [A56, 4-(5-bromo-1H-pyrrolo[2,3-b]pyridin-3-yl)-6-(1-methoxymethoxy-1-pyridin-4-ylethyl)pyrimidin-2-ylamine] | 6.82 |
| Cn1cc(-c2cnc3[nH]cc(-c4cc(C(C)(O)c5ccnnc5)nc(N)n4)c3c2)cn1 (centres unmarked) [A109, 1-{2-amino-6-[5-(1-methyl-1H-pyrazol-4-yl)-1H-pyrrolo[2,3-b]pyridin-3-yl]-pyrimidin-4-yl}-1-pyridazin-4-ylethanol] | 8.11 |
| CC(=O)N1CCN(c2ccc(-c3cnc4[nH]cc(-c5cc(C(C)(O)c6ccccc6)nc(N)n5)c4c3)cn2)CC1 (centres unmarked) [A38, 1-[4-(5-{3-[2-amino-6-(1-hydroxy-1-phenylethyl)pyrimidin-4-yl]-1H-pyrrolo-[2,3-b]pyridin-5-yl}pyridin-2-yl)piperazin-1-yl]ethanone] | 6.85 |
